Patent US6727264B1 (Synaptic Pharmaceutical Corporation, priority 2001, dated 2004)
Like-named read-outs stand apart in the source and are kept apart here.

Molecular target: rat MCH-1 (Rattus norvegicus, UniProt P97639)
Assay: Radioligand binding assay at cloned rat MCH1 receptor ([3H] Compound A)
Design: host or cells: Peak rapid 293 (Peakr293) cells, transient calcium phosphate transfection, membranes
Details: cloned rat MCH1 receptor, 0.08 nM [3H] Compound A, read-out: Ki (nM) rMCH1

rat MCH-1, sequence (P97639 whole entry): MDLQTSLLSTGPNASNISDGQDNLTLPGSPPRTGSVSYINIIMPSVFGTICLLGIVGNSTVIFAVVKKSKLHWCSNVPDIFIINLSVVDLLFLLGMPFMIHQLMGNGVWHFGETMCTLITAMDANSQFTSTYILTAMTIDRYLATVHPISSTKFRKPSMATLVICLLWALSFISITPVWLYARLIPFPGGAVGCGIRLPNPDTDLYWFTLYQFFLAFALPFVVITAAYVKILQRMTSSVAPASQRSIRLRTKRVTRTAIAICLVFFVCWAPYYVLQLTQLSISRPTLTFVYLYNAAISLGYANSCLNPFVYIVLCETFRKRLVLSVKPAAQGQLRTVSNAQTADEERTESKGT

| Ki (membranes from Peakr293 cells) [nM] | Ki (Peakr293 cell membranes) [nM] | SMILES |
| --- | --- | --- |
| 19.2 |  | CC(C)C(=O)Nc1cccc(C2CCN(CC[C@H](NC(=O)c3ccco3)c3ccccc3)CC2)c1 [Example 326] |
| 7.7 |  | CC(C)C(=O)Nc1cccc(C2CCN(CC[C@H](NC(=O)c3cnn(-c4ccc([N+](=O)[O-])cc4)c3C(F)(F)F)c3ccccc3)CC2)c1 [Example 327] |
| 47.6 |  | Cc1onc(-c2c(F)cccc2Cl)c1C(=O)NCCCN1CCC(c2cccc(NC(=O)C(C)C)c2)CC1 [Example 328] |
| 215 |  | CC(C)C(=O)Nc1cccc(C2CCN(CCCNC(=O)c3csc4ccccc34)CC2)c1 [Example 330] |
| 51.3 |  | Cc1onc(-c2ccccc2Cl)c1C(=O)NCCCN1CCC(c2cccc(NC(=O)C(C)C)c2)CC1 [Example 331] |
| 29 |  | Cc1onc(-c2c(Cl)cccc2Cl)c1C(=O)NCCCN1CCC(c2cccc(NC(=O)C(C)C)c2)CC1 [Example 332] |
| 568 |  | CC(=O)c1cccc(O[C@H](CN2CCC(c3cccc(NC(=O)C(C)C)c3)CC2)c2ccccc2)c1 [Example 333] |
| 603 |  | CC(=O)c1ccccc1O[C@H](CN1CCC(c2cccc(NC(=O)C(C)C)c2)CC1)c1ccccc1 [Example 334] |
| 888 |  | CC(C)C(=O)Nc1cccc(C2CCN(C[C@@H](Oc3cccc(Cl)c3)c3ccccc3)CC2)c1 [Example 335] |
| 693 |  | COc1ccc(O[C@H](CN2CCC(c3cccc(NC(=O)C(C)C)c3)CC2)c2ccccc2)cc1OC [Example 336] |
| 907 |  | CC(C)C(=O)Nc1cccc(C2CCN(C[C@H](Oc3ccc(F)cc3)c3ccccc3)CC2)c1 [Example 337] |
| 844 |  | COc1cccc(O[C@@H](CN2CCC(c3cccc(NC(=O)C(C)C)c3)CC2)c2ccccc2)c1 [Example 338] |
| 890 |  | CC(C)C(=O)Nc1cccc(C2CCN(C[C@H](Oc3cccc(Cl)c3)c3ccccc3)CC2)c1 [Example 339] |
| 15.6 |  | CC(=O)c1cccc(O[C@@H](CCN2CCC(c3cccc(NC(=O)C4CC4)c3)CC2)c2ccccc2)c1 [Example 340] |
| 256 |  | CC(=O)c1cccc(OCCCN2CCC(c3cccc(NC(=O)C(C)C)c3)CC2)c1 [Example 341] |
| 183 |  | CC(=O)c1cccc(OCCCN2CCC(c3cccc(NC(=O)C4CC4)c3)CC2)c1 [Example 342] |
| 195 |  | CC(C)C(=O)Nc1cccc(C2CCN(CCCOc3ccccc3F)CC2)c1 [Example 343] |
| 15.4 |  | CC(C)C(=O)Nc1cccc(C2CCN(CCCOc3ccc(Cl)cc3)CC2)c1 [Example 345] |
| 107 |  | CC(C)C(=O)Nc1cccc(C2CCN(CCCOc3cccc(F)c3)CC2)c1 [Example 346] |
| 54.8 |  | CC(C)C(=O)Nc1cccc(C2CCN(CCCOc3ccc(F)cc3)CC2)c1 [Example 347] |
| 84 |  | CC(C)C(=O)Nc1cccc(C2CCN(CCCOc3ccccc3Cl)CC2)c1 [Example 348] |
| 20.4 |  | Cc1ccc(OCCCN2CCC(c3cccc(NC(=O)C(C)C)c3)CC2)cc1C [Example 349] |
| 12.1 |  | CC(C)C(=O)Nc1cccc(C2CCN(CCCOc3ccccc3Br)CC2)c1 [Example 350] |
| 61.8 |  | CC(C)C(=O)Nc1cccc(C2CCN(CCCOc3cccc(Br)c3)CC2)c1 [Example 351] |
| 13.3 |  | CC(C)C(=O)Nc1cccc(C2CCN(CCCOc3ccc(Br)cc3)CC2)c1 [Example 352] |

| Ki (membranes from Peakr293 cells) [nM] | Ki (Peakr293 cell membranes) [nM] | SMILES |
| --- | --- | --- |
| 41.8 |  | COc1ccc(O[C@H](CCN2CCC(c3cccc(N(C)C(=O)C(C)C)c3)CC2)c2ccccc2)cc1OC [Example 353] |
| 81.6 |  | CC(=O)c1cccc(O[C@H](CCN2CCC(c3cccc(N(C)C(=O)C(C)C)c3)CC2)c2ccccc2)c1 [Example 354] |
| 117 |  | CC(=O)c1cccc(O[C@@H](CCN2CCC(c3cccc(N(C)C(=O)C(C)C)c3)CC2)c2ccccc2)c1 [Example 355] |
| 54.5 |  | CC(C)C(=O)Nc1cccc(C2CCN(C[C@H](C)COc3ccc(Br)cc3)CC2)c1 [Example 356] |
| 115 |  | CC(C)C(=O)Nc1cccc(C2CCN(C[C@H](C)COc3cc(F)c(F)cc3F)CC2)c1 [Example 357] |
| 136 |  | CC(C)C(=O)Nc1cccc(C2CCN(C[C@H](C)COc3cccc(Cl)c3)CC2)c1 [Example 358] |
| 83.2 |  | CC(C)C(=O)Nc1cccc(C2CCN(C[C@H](C)COc3ccc(F)cc3)CC2)c1 [Example 359] |
| 163 |  | CC(C)C(=O)Nc1cccc(C2CCN(C[C@H](C)COc3cccc(F)c3)CC2)c1 [Example 360] |
| 311 |  | CC(C)C(=O)Nc1cccc(C2CCN(C[C@H](C)COc3ccccc3Cl)CC2)c1 [Example 361] |
| 281 |  | CC(C)C(=O)Nc1cccc(C2CCN(C[C@H](C)COc3ccccc3F)CC2)c1 [Example 362] |
| 31.6 |  | CC(C)C(=O)Nc1cccc(C2CCN(C[C@H](C)COc3ccc(Cl)cc3)CC2)c1 [Example 363] |
| 144 |  | CC(C)C(=O)Nc1cccc(C2CCN(C[C@H](C)COc3cccc(Br)c3)CC2)c1 [Example 364] |
| 42.9 |  | CC(C)C(=O)Nc1cccc(C2CCN(C[C@H](C)COc3ccccc3Br)CC2)c1 [Example 365] |
| 646 |  | CC(C)C(=O)Nc1cccc(C2CCN(C[C@@H](C)COc3cccc(F)c3)CC2)c1 [Example 366] |
| 236 |  | CC(C)C(=O)Nc1cccc(C2CCN(C[C@@H](C)COc3ccc(F)cc3)CC2)c1 [Example 367] |
| 313 |  | CC(C)C(=O)Nc1cccc(C2CCN(C[C@@H](C)COc3ccccc3Cl)CC2)c1 [Example 368] |
| 145 |  | CC(C)C(=O)Nc1cccc(C2CCN(C[C@@H](C)COc3ccc(Cl)cc3)CC2)c1 [Example 369] |
| 163 |  | CC(C)C(=O)Nc1cccc(C2CCN(C[C@@H](C)COc3cccc(Br)c3)CC2)c1 [Example 371] |
| 358 |  | CC(C)C(=O)Nc1cccc(C2CCN(C[C@@H](C)COc3ccccc3Br)CC2)c1 [Example 372] |
| 428 |  | CC(C)C(=O)Nc1cccc(C2CCN(C[C@@H](C)COc3cccc(Cl)c3)CC2)c1 [Example 373] |
| 96.8 |  | CC(C)C(=O)Nc1cccc(C2CCN(CCCC3OCC(C)(C)CO3)CC2)c1 [Example 374] |
| 186 |  | CC(=O)c1cccc(OCCCCN2CCC(c3cccc(NC(=O)C(C)C)c3)CC2)c1 [Example 375] |
| 888 |  | COc1cccc(OCCCCN2CCC(c3cccc(NC(=O)C(C)C)c3)CC2)c1 [Example 376] |
| 712 |  | COc1ccc(OCCCCN2CCC(c3cccc(NC(=O)C(C)C)c3)CC2)cc1 [Example 377] |
| 308 |  | COc1ccccc1OCCCCN1CCC(c2cccc(NC(=O)C(C)C)c2)CC1 [Example 378] |

| Ki (membranes from Peakr293 cells) [nM] | Ki (Peakr293 cell membranes) [nM] | SMILES |
| --- | --- | --- |
| 204 |  | Cc1ccc(OCCCCN2CCC(c3cccc(NC(=O)C(C)C)c3)CC2)cc1C [Example 379] |
| 309 |  | CC(C)C(=O)Nc1cccc(C2CCN(CCCCC3OCCO3)CC2)c1 [Example 380] |
| 235 |  | CC(=O)c1cccc(OCCCCCN2CCC(c3cccc(NC(=O)C(C)C)c3)CC2)c1 [Example 381] |
| 319 |  | CC(=O)c1cccc(OCCCCCN2CCC(c3cccc(NC(=O)C4CC4)c3)CC2)c1 [Example 382] |
| 290 |  | CC(=O)c1cccc(OCCCCCCN2CCC(c3cccc(NC(=O)C(C)C)c3)CC2)c1 [Example 383] |
| 69 |  | CC(=O)c1cccc(OCCCCCCN2CCC(c3cccc(NC(=O)C4CC4)c3)CC2)c1 [Example 384] |
| 325 |  | CC(C)C(=O)Nc1cccc(C2CCN(CCCC(Oc3ccc(Cl)cc3)c3ccc(Cl)cc3)CC2)c1 (stereo not shown) [Example 385] |
| 26.3 |  | CC(C)C(=O)Nc1cccc(C2CCN(CCc3c(-c4ccccc4)n(C)c4ccccc34)CC2)c1 [Example 386] |
| 19.7 |  | CC(C)C(=O)Nc1cccc(C2CCN(CCc3c(-c4ccccc4)[nH]c4c3ccc3ccccc34)CC2)c1 [Example 387] |
| 20.7 |  | CC(C)C(=O)Nc1cccc(C2CCN(CCCc3c(-c4ccccc4)[nH]c4c3ccc3ccccc34)CC2)c1 [Example 388] |
| 2.2 |  | CC(C)C(=O)Nc1cccc(C2CCN(CCCc3c(-c4ccccc4)[nH]c4ccc(OC(F)(F)F)cc34)CC2)c1 [Example 389] |
| 1 |  | CC(C)C(=O)Nc1cccc(C2CCN(CCCCc3c(-c4ccccc4)[nH]c4ccc(OC(F)(F)F)cc34)CC2)c1 [Example 390] |
| 21.9 |  | CC(C)C(=O)Nc1cccc(C2CCN(CCCc3c(-c4ccccc4)n(C)c4ccccc34)CC2)c1 [Example 391] |
| 18.1 |  | CC(C)C(=O)Nc1cccc(C2CCN(CCCCc3c(-c4ccccc4)n(-c4ccccc4)c4ccccc34)CC2)c1 [Example 392] |
| 9.5 |  | CC(C)C(=O)Nc1cccc(C2CCN(CCCCCc3c(-c4ccccc4)[nH]c4ccc(OC(F)(F)F)cc34)CC2)c1 [Example 393] |
| 2.4 |  | CC(C)C(=O)Nc1cccc(C2CCN(CCCCCc3c(-c4ccccc4)n(C)c4ccccc34)CC2)c1 [Example 395] |
| 13.6 |  | CC(C)C(=O)Nc1cccc(C2CCN(CCCCCc3c(-c4ccccc4)[nH]c4c3ccc3ccccc34)CC2)c1 [Example 398] |
|  | 31.9 | Cc1ccc2[nH]c(-c3ccccc3)c(CCN3CCC(c4cccc(NC(=O)C(C)C)c4)CC3)c2c1 [Example 399] |
|  | 43.9 | COc1cccc2c(CCN3CCC(c4cccc(NC(=O)C(C)C)c4)CC3)c(-c3ccccc3)[nH]c12 [Example 400] |
|  | 44.6 | Cc1cccc2c(CCN3CCC(c4cccc(NC(=O)C(C)C)c4)CC3)c(-c3ccccc3)[nH]c12 [Example 401] |
|  | 11.7 | Cc1cccc2c(CCCCN3CCC(c4cccc(NC(=O)C(C)C)c4)CC3)c(-c3ccccc3)[nH]c12 [Example 403] |
|  | 12.3 | COc1cccc2c(CCCCN3CCC(c4cccc(NC(=O)C(C)C)c4)CC3)c(-c3ccccc3)[nH]c12 [Example 406] |
|  | 16.6 | CC(C)C(=O)Nc1cccc(C2CCN(CCCc3cn(-c4ccccc4)c4ccccc34)CC2)c1 [Example 407] |
|  | 21.6 | CC(C)C(=O)Nc1cccc(C2CCN(CCc3cn(-c4ccccc4)c4ccccc34)CC2)c1 [Example 408] |

| SMILES | Ki (membranes from Peakr293 cells) [nM] | Ki (Peakr293 cell membranes) [nM] |
| --- | --- | --- |
| CC(C)C(=O)Nc1cccc(C2CCN(CCCOc3cccc(Cl)c3)CC2)c1 [Example 344] | 44.6 |  |
| Cc1cccc2c(CCN3CCC(c4cccc(NC(=O)C(C)C)c4)CC3)c[nH]c12 [Example 409] |  | 96.7 |
